# Values of other authors as cited in patent US8685425B2, “Microencapsulation product and process” (priority 2004, dated 2014).
smiles,measurement,value
"CCN(CC)C(=O)c1cccc(C)c1 [DEET, N,N-diethyl-m-toluamide]",solubility of DEET in water,around 1%
